From US20020132817A1, “Heterocyclic compounds, their production and use” (priority 1998, published 2002)

Columns and labels:
substance P receptor = molecular target: T1, substance P receptor (Homo sapiens, UniProt P25103); assay: Radioligand receptor binding inhibitory activity using receptor from human lymphoblast cells (IM-9); settings: 125I-BHSP radioligand, receptor from IM-9 cells, 25° C. for 30 minutes
T1 construct: The receptor was prepared from human lymphoblast cells (IM-9); endogenous in cells; host or cells: IM-9 human lymphoblast cells (membrane preparation)
T1 sequence (P25103 whole entry): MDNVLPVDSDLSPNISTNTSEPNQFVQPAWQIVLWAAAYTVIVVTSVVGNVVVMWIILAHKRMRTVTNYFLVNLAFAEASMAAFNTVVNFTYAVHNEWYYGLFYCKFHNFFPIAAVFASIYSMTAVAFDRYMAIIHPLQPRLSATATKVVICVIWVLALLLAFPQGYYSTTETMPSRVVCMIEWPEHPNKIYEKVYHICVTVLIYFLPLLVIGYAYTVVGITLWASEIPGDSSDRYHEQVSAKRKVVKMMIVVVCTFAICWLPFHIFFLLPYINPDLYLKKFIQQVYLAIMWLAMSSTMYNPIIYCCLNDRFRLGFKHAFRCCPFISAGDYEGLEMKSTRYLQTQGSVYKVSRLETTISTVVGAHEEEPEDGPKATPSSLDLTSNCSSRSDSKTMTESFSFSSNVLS
Experimental: Radioligand receptor binding inhibitory activity Binding inhibitory activity using receptor from human lymphoblast cells (IM-9)
The receptor was prepared from human lymphoblast cells (IM-9). IM-9 cells (2×10^5 cells/ml) were inoculated and incubated for 3 days (one liter), which was then subjected to centrifuge for 5 minutes at 500×g to obtain cell pellets. […] The residue was washed twice with 30 ml of the above-mentioned buffer, which was then preserved frozen (−80° C.) as a specimen of the receptor.
The specimen was suspended in a reaction buffer (50 mM Tri-HCl buffer (pH 7.4), 0.02% bovine serum albumin, 1 mM phenylmethylsulfonyl fluoride, […], […] bacitracin, 3 mM manganese chloride) and 100 ul portion was the suspension was used in the reaction. […] The amount of nonspecific binding was determined by adding substance P at a final concentration of 2×10^−6M. After the reaction, using a cell harvester (290 PHD, Cambridge Technology, Inc, U.S.A.), rapid filtration was carried out through a glass filter (GF/B, Whatman, U.S.A.) to stop the reaction. After washing three times with 250 ul of 50 mM of Tris-HCl buffer (pH 7.4) containing 0.02% bovine serum albumin, the radioactivity remaining on the filter was determined with a gamma counter. Before use, the filter was immersed in 0.1% polyethyleneimine for 24 hours and air-dried.

| Structure (SMILES) | IC50 (substance P receptor) | melting point |
| --- | --- | --- |
| CCOc1cc(CN2C[C@H](C)CCn3c(c(-c4ccc(C)cc4)c4cccnc4c3=O)C2=O)cc(OCC)c1 [Example 3, (9R)-7-(3,5-diethoxybenzyl)-6,7,8,9,10,11-hexahydro-9-methyl-5-(4-methylphenyl)-6,13-dioxo-13H-[1,4]diazosino[2,1-g][1,7]napththylidine] | 0.69 nM |  |
| Cc1ccc(-c2c3n(c(=O)c4ncccc24)CC[C@@H](C)CN(Cc2cc(OC(C)C)cc(OC(C)C)c2)C3=O)cc1 [Example 4, (9R)-7-[3,5-di(1-methylethyloxy)benzyl)-6,7,8,9,10,11-hexahydro-9-methyl-5-(4-methylphenyl)-6,13-dioxo-13H-[1,4]diazosino[2,1-g[]1,7]napththylidine] | 0.17 nM |  |
| COc1cc(CN2C[C@H](C)CCn3c(c(-c4ccccc4)c4cccnc4c3=O)C2=O)cc(OC)c1 [Example 5, (9R)-7-(3,5-dimethoxybenzyl)-6,7,8,9,10,11-hexahydro-9-methyl-6,13-dioxo-5-phenyl-13H-[1,4]diazosino[2,1-g][1,7]napththylidine] | 0.48 nM | 199 to 201 °C |
| COc1cc(CN2C[C@H](C)CCn3c(c(-c4ccc(Cl)c(Cl)c4)c4cccnc4c3=O)C2=O)cc(OC)c1 [Example 8, (9R)-7-(3,5-dimethoxybenzyl)-5-(3,4-dichlorophenyl)-6,7,8,9,10,11-hexahydro-9-methyl-6,13-dioxo-13H-[1,4]diazosino[2,1-g][1,7]napththylidine] | 0.05 nM | 207 to 208 °C |
| Cc1ccc(-c2c3n(c(=O)c4ncccc24)CC[C@@H](C)CN(Cc2cc(C)cc(C)c2)C3=O)cc1 [Example 9, (9R)-7-(3,5-dimethylbenzyl)-6,7,8,9,10,11-hexahydro-9-methyl-5-(4-methylphenyl)-6,13-dioxo-13H-[1,4]diazosino[2,1-g][1,7]napththylidine] | 0.86 nM | 200 to 202 °C |
| Cc1ccc(-c2c3n(c(=O)c4ncccc24)CC[C@@H](C)CN(Cc2cc(Cl)cc(Cl)c2)C3=O)cc1 [Example 10, (9R)-7-(3,5-dichlorobenzyl)-6,7,8,9,10,11-hexahydro-9-methyl-5-(4-methylphenyl)-6,13-dioxo-13H-[1,4]diazosino[2,1-g][1,7]napththylidine] | 1 nM | 139 to 141 °C |
| Cc1cc(C)cc(CN2C[C@H](C)CCn3c(c(-c4ccc(Cl)c(Cl)c4)c4cccnc4c3=O)C2=O)c1 [Example 11, (9R)-5-(3,4-dichlorophenyl)-7-(3,5-dimethylbenzyl)-6,7,8,9,10,11-hexahydro-9-methyl-6,13-dioxo-13H-[1,4]diazosino[2,1-g][1,7]napththylidine] | 0.81 nM | 137 to 139 °C |
| COc1cc(CN2C[C@H](C)CCn3c(c(-c4ccc(F)cc4)c4cccnc4c3=O)C2=O)cc(OC)c1 [Example 12, (9R)-7-(3,5-dimethoxybenzyl)-5-(4-fluorophenyl)-6,7,8,9,10,11-hexahydro-9-methyl-6,13-dioxo-13H-[1,4]diazosino[2,1-g][1,7]napththylidine] | 1.5 nM | 192 to 193 °C |
| COc1cc(CN2C[C@H](C)CCn3c(c(-c4ccc(Cl)cc4)c4cccnc4c3=O)C2=O)cc(OC)c1 [Example 13, (9R)-5-(4-chlorophenyl)-7-(3,5-dimethoxybenzyl)-6,7,8,9,10,11-hexahydro-9-methyl-6,13-dioxo-13H-[1,4]diazosino[2,1-g][1,7]napththylidine] | 1.1 nM | 229 to 230 °C |
| C[C@H]1COc2nccc(-c3ccccc3)c2C(=O)N(Cc2ccccc2)C1 [Reference Example 124, (R)-5-Benzyl-2,3,4,5-tetrahydro-3-methyl-6-oxo-7-phenyl-6H-pyrido[2,3-b][1,5]oxazocine] |  | 139 to 140 °C |
| C[C@@H]1COc2nccc(-c3ccccc3)c2C(=O)N(Cc2cc(C(F)(F)F)cc(C(F)(F)F)c2)C1 [Reference Example 125, (S)-5-[3,5-Bis(trifluoromethyl)benzyl]-2,3,4,5-tetrahydro-3-methyl-6-oxo-7-phenyl-6H-pyrido[2,3-b][1,5]oxazocine] |  | 142 to 143 °C |
| C[C@H]1COc2nccc(-c3ccccc3)c2C(=O)N(Cc2cc(C(F)(F)F)cc(C(F)(F)F)c2)C1 [Reference Example 126, (R)-5-[3,5-Bis(trifluoromethyl)benzyl]-2,3,4,5-tetrahydro-3-methyl-6-oxo-7-phenyl-6H-pyrido[2,3-b][1,5]oxazocine] |  | 142 to 143 °C |
| Cc1ccc(-c2ccnc3c2C(=O)N(Cc2ccccc2)CCO3)cc1 [Reference Example 133, 4-Benzyl-2,3,4,5-tetrahydro-5-oxo-6-(4-methylphenyl)pyrido[3,2-f][1,4]oxazepine] |  | 203 to 204 °C |
| Cc1ccc(-c2ccnc3c2C(=O)N(Cc2ccccc2)C[C@H](C)CO3)cc1 [Reference Example 135, (S)-5-Benzyl-2,3,4,5-tetrahydro-3-methyl-7-(4-methylphenyl)-6-oxo-6H-pyrido[2,3-b][1,5]oxazocine] |  | 148 to 149 °C |

The remaining lines, values ahead:

| IC50 (substance P receptor) | melting point | Structure (SMILES) |
| --- | --- | --- |
| 1.1 nM | 258 to 260 °C | CCC1CCn2c(c(-c3ccc(C)cc3)c3cccnc3c2=O)C(=O)N(Cc2cc(C(F)(F)F)cc(C(F)(F)F)c2)C1 (racemic) [Example 15, (±)-7-[3,5-bis(trifluoromethyl)benzyl]-9-ethyl-6,7,8,9,10,11-hexahydro-5-(4-methylphenyl)-6,13-dioxo-13H-[1,4]diazosino[2,1-g][1,7]napththylidine] |
| 0.88 nM | 257 to 258 °C | CC1CCn2c(c(-c3ccccc3)c3cccnc3c2=O)C(=O)N(Cc2cc(C(F)(F)F)cc(C(F)(F)F)c2)C1 (racemic) [Reference Example 69, (+/−)-7-[3,5-Bis(trifluoromethyl)benzyl]-6,7,8,9,10,11-hexahydro-9-methyl-6,13-dioxo-5-phenyl-13H-[1,4]diazocino[2,1-g][1,7]naphthyridine] |
| 0.1 nM | 282 to 283 °C | Cc1ccc(-c2c3n(c(=O)c4ncccc24)CC(O)CN(Cc2cc(C(F)(F)F)cc(C(F)(F)F)c2)C3=O)cc1 (racemic) [Reference Example 79, (+/−)-7-[3,5-Bis(trifluoromethyl)benzyl]-6,7,8,9,10,12-hexahydro-9-hydroxy-5-(4-methylphenyl)-6,12-dioxo[1,4]diazepino [2,1-g][1,7]naphthyridine] |
| 0.13 nM |  | C[C@@H]1CCn2c(c(-c3ccc(Cl)cc3)c3cccnc3c2=O)C(=O)N(Cc2cc(C(F)(F)F)cc(C(F)(F)F)c2)C1 [Example 6, (9R)-7-[3,5-bis(trifluoromethyl)benzyl]-5-(4-chlorophenyl)-6,7,8,9,10,11-hexahydro-9-methyl-6,13-dioxo-13H-[1,4]diazosino[2,1-g][1,7]napththylidine] |
| 0.83 nM |  | C[C@@H]1CCn2c(c(-c3ccc(Cl)c(Cl)c3)c3cccnc3c2=O)C(=O)N(Cc2cc(C(F)(F)F)cc(C(F)(F)F)c2)C1 [Example 7] |
| 0.37 nM |  | C[C@@H]1CCn2c(c(-c3ccc(F)cc3)c3cccnc3c2=O)C(=O)N(Cc2cc(C(F)(F)F)cc(C(F)(F)F)c2)C1 [Example 14, (9R)-7-[3,5-bis(trifluoromethyl)benzyl]-5-(4-fluorophenyl)-6,7,8,9,10,11-hexahydro-9-methyl-6,13-dioxo-13H-[1,4]diazosino[2,1-g][1,7]napththylidine] |
| 0.66 nM |  | Cc1ccc(-c2c3c(c(=O)n4c2C(=O)N(Cc2cc(C(F)(F)F)cc(C(F)(F)F)c2)CCCC4)CN(C)CC3)cc1 [Reference Example 64, 7-[3,5-Bis(trifluoromethyl)benzyl]-1,2,3,4,6,7,8,9,10,11-decahydro-2-methyl-5-(4-methylphenyl)-6,13-dioxo-13H-[1,4]diazocino[1,2-b][2,7]naphthyridine] |
| 1.6 nM |  | Cc1cnc2c(c1-c1ccccc1)C(=O)N(Cc1cc(C(F)(F)F)cc(C(F)(F)F)c1)CCCO2 [Reference Example 78] |
| 0.2 nM |  | CN1CCN(Cc2cc(-c3ccccc3)c3c(n2)OCCN(Cc2cc(C(F)(F)F)cc(C(F)(F)F)c2)C3=O)CC1 [Reference Example 101, 4-[3,5-Bis(trifluoromethyl)benzyl]-2,3,4,5-tetrahydro-8-(N-methylpiperazinomethyl)-5-oxo-6-phenylpyrido[3,2-f][1,4]oxazepine] |
|  | 212 to 213 °C | Cc1ccc(-c2ccnc3c2C(=O)N(Cc2cc(C(F)(F)F)cc(C(F)(F)F)c2)CCO3)cc1 [Reference Example 134, 4-[3,5-Bis(trifluoromethyl)benzyl]2,3,4,5-tetrahydro-5-oxo-6-(4-methylphenyl)pyrido[3,2-f][1,4]oxazepine] |
|  | 159 to 160 °C | Cc1ccc(-c2ccnc3c2C(=O)N(Cc2cc(C(F)(F)F)cc(C(F)(F)F)c2)C[C@H](C)CO3)cc1 [Reference Example 136, (S)-5-[3,5-Bis(trifluoromethyl)benzyl]2,3,4,5-tetrahydro-3-methyl-7-(4-methylphenyl)-6-oxo-6H-pyrido[2,3-b][1,5]oxazocine] |
